Reference: patent US20110053985A1, “NOVEL PIPERIDINE-4-CARBOXYLIC ACID PHENYL-ALKYL-AMIDE DERIVATIVES AND THEIR USE AS MONOAMINE NEUROTRANSMITTER RE-UPTAKE INHIBITORS” (NEUROSEARCH A/S, priority 2008, published 2011)
pIC50: −log10 of the molar value. Where a name gives a salt, the structure may show the parent alone.

Key:
[1] = target: T1, serotonine (5-HT) reuptake in synaptosomes (Rattus norvegicus, UniProt P31652); test: Inhibition of 5-HT reuptake in synaptosomes; type: biochemical; details: 3H-5-HT, read-out: 5-HT-uptake IC50
T1 construct: serotonine (5-HT) in synaptosomes as described in WO 97/16451; from tissue; host or cells: synaptosomes (brain tissue)
T1 sequence (P31652 whole entry): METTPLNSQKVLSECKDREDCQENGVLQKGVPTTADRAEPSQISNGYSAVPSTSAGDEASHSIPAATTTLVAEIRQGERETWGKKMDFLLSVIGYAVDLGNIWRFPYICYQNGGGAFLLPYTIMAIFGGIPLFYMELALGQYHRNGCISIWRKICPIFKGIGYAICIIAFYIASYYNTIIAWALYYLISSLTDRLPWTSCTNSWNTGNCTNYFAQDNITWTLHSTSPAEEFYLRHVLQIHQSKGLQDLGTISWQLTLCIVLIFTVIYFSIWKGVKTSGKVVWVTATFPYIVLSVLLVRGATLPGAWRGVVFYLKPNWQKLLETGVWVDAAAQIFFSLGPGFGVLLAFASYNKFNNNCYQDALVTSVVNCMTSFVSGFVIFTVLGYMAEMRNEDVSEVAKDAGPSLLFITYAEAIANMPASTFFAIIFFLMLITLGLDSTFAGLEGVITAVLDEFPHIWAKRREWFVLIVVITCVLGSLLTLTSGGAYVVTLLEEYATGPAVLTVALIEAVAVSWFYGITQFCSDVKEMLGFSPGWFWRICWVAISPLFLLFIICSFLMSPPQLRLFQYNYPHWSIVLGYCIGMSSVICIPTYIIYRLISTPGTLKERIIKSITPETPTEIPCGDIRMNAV
Excerpt: (§1) Compounds of the invention may be tested for their ability to inhibit re-uptake of the monoamines dopamine, noradrenaline and serotonin in synaptosomes e.g. such as described in WO 97/30997 (NeuroSearch A/S) or WO 97/16451 (NeuroSearch NS). Based on the balanced activity observed in these tests the compound of the invention is considered useful for the treatment, prevention or alleviation of a disease or a disorder or a condition of a mammal, including a human, which disease, disorder or condition is responsive to inhibition of monoamine neurotransmitter re-uptake in the central nervous system.
(§2) Compounds were tested for their ability to inhibit the reuptake of the monoamine neurotransmitters dopamine (DA) noradrenaline (NA) and serotonine (5-HT) in synaptosomes as described in WO 97/16451 (NeuroSearch A/S).
(§3) The test values are given as IC50 (the concentration (μM) of the test substance which inhibits the specific binding of ^3H-DA, ^3H-NA, or ^3H-5-HT by 50%).

[2] = target: T2, dopamine (DA) reuptake in synaptosomes (Rattus norvegicus, UniProt P23977); test: Inhibition of DA reuptake in synaptosomes; type: biochemical; details: 3H-DA, read-out: DA-uptake IC50
T2 construct: in synaptosomes as described in WO 97/16451; from tissue; host or cells: synaptosomes (brain tissue)
T2 sequence (P23977 whole entry): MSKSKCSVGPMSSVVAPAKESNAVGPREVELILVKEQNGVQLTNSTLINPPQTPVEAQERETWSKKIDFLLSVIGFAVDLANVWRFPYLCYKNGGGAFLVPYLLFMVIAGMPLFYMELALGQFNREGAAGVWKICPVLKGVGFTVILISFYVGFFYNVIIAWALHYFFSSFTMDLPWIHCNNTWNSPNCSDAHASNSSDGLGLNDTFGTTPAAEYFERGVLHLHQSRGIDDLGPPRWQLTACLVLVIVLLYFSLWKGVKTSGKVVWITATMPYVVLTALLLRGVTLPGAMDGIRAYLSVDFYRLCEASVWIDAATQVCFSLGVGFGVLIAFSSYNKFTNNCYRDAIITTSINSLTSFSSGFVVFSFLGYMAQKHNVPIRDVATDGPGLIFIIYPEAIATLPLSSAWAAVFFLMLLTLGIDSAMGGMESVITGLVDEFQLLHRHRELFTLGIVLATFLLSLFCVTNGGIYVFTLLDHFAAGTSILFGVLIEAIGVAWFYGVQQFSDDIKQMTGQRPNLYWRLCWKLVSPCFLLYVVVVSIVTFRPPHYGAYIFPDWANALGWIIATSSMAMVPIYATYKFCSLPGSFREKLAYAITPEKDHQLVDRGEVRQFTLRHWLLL
Excerpt: as §1, §2, §3

## CCN(C(=O)C1CCNCC1)c1ccc(Cl)c(Cl)c1.O=C(O)C(F)(F)F [Compound C1, Piperidine-4-carboxylic acid (3,4-dichloro-phenyl)-ethyl-amide trifluoroacetic acid salt]
[1]
  pIC50: 6.43
[2]
  pIC50: 7.68
other
  melting point: 159.3 to 160.7 °C

## CCN(C(=O)C1CCNCC1)c1ccc(Cl)c(Br)c1 [Compound C7, Piperidine-4-carboxylic acid (3-bromo-4-chloro-phenyl)-ethyl-amide hydrochloric acid salt]
[1]
  pIC50: 6.85
[2]
  pIC50: 8.11

## CCN(C(=O)C1CCNCC1)c1ccc(Br)c(Br)c1 [Compound C13, Piperidine-4-carboxylic acid (3,4-dibromo-phenyl)-ethyl-amide hydrochloric acid salt]
[1]
  pIC50: 6.92
[2]
  pIC50: 8.40
